Test results: patent US8921304B2, “Modified ubiquitin proteins having a specific binding activity for the extradomain B of fibronectin” (Scil Proteins GmbH, priority 2009, dated 2014)
“Also recorded” adds a separate entry of the source. Like-named read-outs stand apart in the source and are kept apart here.

How the values were obtained:
L929 cells = assay: L929 apoptosis assay (TNF-alpha activity); assay type: cell-based
Procedure: The physiological TNF-alpha-activity of TNF-alpha-modified ubiquitin based ED-B binding fusions has been determined using the L929 apoptosis assay (Flick et al., 1984 J. Immunol. Methods. 68:167-175). In this assay, TNF-alpha efficiently stimulates cell death in actinomycinD sensitized cells at EC50 values in the picomolar range.
Cells have been resuspended in medium containing FBS and antibiotics. A cell suspension of 100 μl of a densitiy of 3.5×10^5 cells/ml has been seeded into the wells of a 96 well standard cell culture plate followed by over night incubation in a humidified CO2 incubator. Thereafter, the culture medium has been removed and 50 μl of medium containing FBS, ActinomycinD and antibiotics has been added to each well followed by a further 30 min incubation time. Thereafter, 50 μl of the test items, TNF-alpha-modified ubiquitin based ED-B binding-fusions or the human recombinant TNF-alpha control, at an appropriate concentration range of between 10^−7 and 10^−18 M, have been added. After a further 48 h incubation time the metabolic activity as a measure of cell survival was determined using WST-1 reagent (Roche).
Per test item at least three independent experiments have been conducted, each of them in triplicates. […]
The quantitative evaluation is based on the EC50-value, i.e. the value according to the test item concentration promoting the survival of half of the cells.

[1] = biological target: ED-B containing fibronectin fragment (67B89) (Homo sapiens, UniProt P02751); assay: label-free interaction assay using BIACORE; assay type: binding
Procedure: Different concentrations of the variant were analyzed (for example, 0-200 nM of the variant, preferably 1041-D11) for binding to an ED-B containing fibronectin fragment (referred to as 67B89) immobilized on a CMS-chip (BIACORE®) using methods known to those skilled in the art. The obtained data were processed via the BIAevaluation software and 1:1-Langmuir-fitting. The kinetic binding constants were kon=7.6*10^5 M^−1s^−1; koff=7.7*10^−4 s^−1. The kinetic binding constants were kon=4.5*10^5 M^−1 s^−1; koff 5.0^*10^−4 s^−1.

F9 teratoma = assay type: in vivo; conditions: for effect on tumor growth: stage 1
Procedure: To establish the therapeutic efficacy of 1041-D11-TNFalpha, the compound was tested on F9 teratoma (see Borsi et al., 2003 Blood 102, 4384-4392) in mouse models. […] F9 teratoma is an aggressive tumor with high vascular density. […] The experimental schedule for the efficacy study was adapted from Borsi, 2003.
Stage 1 defined the pharmacologic active and tolerable dose with endpoints relating to the ratio of tumor vs. body weight, weight loss and survival. […]
Stage 2 of the study defined the dose-dependent efficacy with Melphalan having as endpoint the retardation of tumor growth (animal weight loss>10%, tumor>10% body weight, ulceration of tumor). In the study, 1041D11/mTNFa, murine TNFa, in combination with melphalan were tested.

[2] = biological target: T1, Human fibronectin lacking the ED-B domain (h6789) (Homo sapiens, UniProt P02751); assay: concentration dependent ELISA, negative control fibronectin fragment without ED-B; assay type: binding; conditions: conc.-ELISA, open circles
T1 construct: Human fibronectin lacking the ED-B domain (h6789)

EDB expressing cells = assay: binding specificity of the TNF-alpha fusion in cell culture (FIG. 17E); assay type: cell-based
[3] = system: human fetal lung fibroblast cells (Wi38); assay: binding to cell culture cells, Wi38; assay type: cell-based; conditions: immunofluorescence
Procedure: (§1) The binding of variant 1041-D11 to cell culture cells was tested. Different cell culture cells were analysed, including normal human fetal lung fibroblast cells having high expression levels of ED-B (Wi38 cells), a mouse embryonic fibroblast cell line (Balb 3T3); a stromal cell line, derived from mouse bone marrow (ST-2) monocytes/macrophages (RAW 264.7), NHDF cells and murine fibroblast cells (LM).
The negative control cell type NHDF are primary normal fibroblast cells, which express low levels of EDB-fibronectin (data not shown).
The negative control cells type NHDF are primary normal fibroblast cells, which express low levels of EDB-fibronectin. The cells were plated in chamber-slides (NUNC, 60000 cells/ml). To analyses the binding potential the cells were fixed with 100% MeOH for 5 min at −20° C. To block unspecific binding, the cells were incubated with 5% Horse-serum 1 h 37° C. The cells were tested with the variant 1041-D11, an ED-B specific antibody FV28 CH4/F1 as positive control or UB—2 as negative control with different concentrations 1 h RT. The proving occurred about an incubation with rabbit-a-Strep-Tag-IgG (obtained from GenScript A00875, 1:500) for 1 h and incubation with a-rabbit-IgG*Alexa488-AK (obtained from Invitrogen A11008, 1:1000) for 1 h. The nuclei were stained with DAPI. […] The first 2 lines show the variant and positive control on Wi38-cell line.

ED-B = ED-B (Homo sapiens, UniProt P02751); assay: ED-B binding analysis, method not stated (FIG. 7, general statements)
[4] = system: 48 tissues in FDA relevant panel; assay: tissue panel staining (48 tissues); assay type: binding
murine Balb 3T3-cells = assay: binding to cell culture cells, Balb 3T3; assay type: cell-based; conditions: 1, 10, 50 nM
Procedure: as §1
(§2) Similar experiments were performed using different cells types, for example Balb3T3 (ATCC, Kat-Nr. 30-2002), Raw (Lonza, Kat-Nr. BE12-115F/U1), ST-2 (Lonza, Ka t-Nr. BE12-115F/U1).

[5] = biological target: fibronectin fragment 67B89 (ED-B) (Homo sapiens, UniProt P02751); assay: complex-formation analysis by SE-HPLC with 67B89; assay type: binding; conditions: 0.72 nmol each, 1 h at RT
Procedure: (§3) For the analysis of complex formation, Tricorn Superdex 75 5/150 GL columns (GE-Healthcare) (V=3 ml) was used, protein amount of 50 μl was applied. Further conditions: buffer: 1×PBS, pH 7.3, flow-rate: 0.3 ml/min, run: 45 min (injection of sample: after 15 min). Condition: 0.72 nmol 1041-D11 protein+0.72 nmol ED-B (herein referred to 67B89 or also as a negative control 6789) incubated for 1 h at RT; then applied to column for analysis of complex-formation. In FIGS. 14A and 14B, only the variant is shown in black, only the target ED-B is shown in blue, the variant binding building a complex with ED-B in pink.

[6] = biological target: T2, fibronectin fragment 6789 without ED-B (Homo sapiens, UniProt P02751); assay: complex-formation analysis by SE-HPLC with 6789; assay type: binding; conditions: 0.72 nmol each, 1 h at RT
T2 construct: fibronectin fragment 6789 without ED-B
Procedure: as §3

F9 tumor tissues = assay: accumulation in F9 tumor tissue; assay type: in vivo, mice; conditions: time points between 30 min and 16 h
[7] = biological target: T3, ED-B (F9 tumor vasculature) (Mus musculus, UniProt P11276); assay: immunohistochemistry on F9 tumor tissue sections; assay type: binding, mice; conditions: seven samples; 10 nM to 100 nM / 500 nM
T3 construct: 1041-D11 specifically decorates the vasculature in tissue sections from F9 tumors; from tissue; host or cells: F9 tumor tissue sections from mice
Procedure: F9 tumor tissues from seven samples were evaluated. […] ED-B is a highly specific marker for tumor vasculature. The target protein EDB is located on the abluminal side of the vessels. 1041-D11 specifically decorates the vasculature in tissue sections from F9 tumors. […] Thus, fusion proteins based on modified ubiquitin specifically binding to ED-B are suitable an ED-B based targeted therapy for cancer.

murine ST-2-cells = assay: binding to cell culture cells, ST-2; assay type: cell-based; conditions: 1, 10, 50 nM
Procedure: as §1, §2

Sequence of ED-B containing fibronectin fragment (67B89) (P02751 1085-1537 limits assumed): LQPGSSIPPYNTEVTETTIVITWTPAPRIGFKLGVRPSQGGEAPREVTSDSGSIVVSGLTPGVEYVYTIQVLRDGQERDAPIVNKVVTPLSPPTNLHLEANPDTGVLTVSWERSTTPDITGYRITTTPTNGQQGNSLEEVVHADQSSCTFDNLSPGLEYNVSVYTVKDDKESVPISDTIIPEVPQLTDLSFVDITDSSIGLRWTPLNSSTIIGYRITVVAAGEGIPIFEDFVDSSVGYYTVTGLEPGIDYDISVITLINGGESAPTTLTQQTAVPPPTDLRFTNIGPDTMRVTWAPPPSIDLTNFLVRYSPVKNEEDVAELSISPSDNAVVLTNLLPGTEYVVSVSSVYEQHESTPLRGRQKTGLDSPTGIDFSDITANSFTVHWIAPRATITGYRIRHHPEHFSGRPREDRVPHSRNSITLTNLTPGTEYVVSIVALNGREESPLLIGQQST
T1 sequence (P02751 1085-1446 isoform P02751-1): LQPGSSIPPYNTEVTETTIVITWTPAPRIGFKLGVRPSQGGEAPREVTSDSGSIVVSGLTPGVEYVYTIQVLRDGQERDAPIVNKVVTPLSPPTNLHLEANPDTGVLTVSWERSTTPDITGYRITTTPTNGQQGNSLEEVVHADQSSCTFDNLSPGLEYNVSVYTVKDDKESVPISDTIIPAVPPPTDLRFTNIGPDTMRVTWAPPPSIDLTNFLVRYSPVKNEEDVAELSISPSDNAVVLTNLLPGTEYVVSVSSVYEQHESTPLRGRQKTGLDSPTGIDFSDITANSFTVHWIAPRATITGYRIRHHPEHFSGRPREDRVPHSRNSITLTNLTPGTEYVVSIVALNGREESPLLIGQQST
T2 sequence (P02751 1089-1449 isoform P02751-1): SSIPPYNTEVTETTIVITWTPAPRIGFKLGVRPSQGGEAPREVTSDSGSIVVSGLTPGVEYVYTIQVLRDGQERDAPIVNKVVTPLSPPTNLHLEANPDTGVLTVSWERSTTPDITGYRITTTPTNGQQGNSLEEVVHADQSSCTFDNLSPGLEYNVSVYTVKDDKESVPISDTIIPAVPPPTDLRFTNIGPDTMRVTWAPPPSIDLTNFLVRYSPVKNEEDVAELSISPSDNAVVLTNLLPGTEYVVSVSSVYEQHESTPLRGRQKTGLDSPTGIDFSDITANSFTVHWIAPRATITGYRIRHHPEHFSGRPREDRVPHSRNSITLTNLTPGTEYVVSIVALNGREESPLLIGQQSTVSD
Sequence of fibronectin fragment 67B89 (ED-B) (P02751 1085-1537 limits assumed): as the sequence (P02751 1085-1537 limits assumed) above
Sequence of ED-B (P02751 1266-1356 limits assumed): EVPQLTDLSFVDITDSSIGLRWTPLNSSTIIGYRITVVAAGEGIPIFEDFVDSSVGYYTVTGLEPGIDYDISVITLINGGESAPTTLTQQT
T3 sequence (P11276 33-2477): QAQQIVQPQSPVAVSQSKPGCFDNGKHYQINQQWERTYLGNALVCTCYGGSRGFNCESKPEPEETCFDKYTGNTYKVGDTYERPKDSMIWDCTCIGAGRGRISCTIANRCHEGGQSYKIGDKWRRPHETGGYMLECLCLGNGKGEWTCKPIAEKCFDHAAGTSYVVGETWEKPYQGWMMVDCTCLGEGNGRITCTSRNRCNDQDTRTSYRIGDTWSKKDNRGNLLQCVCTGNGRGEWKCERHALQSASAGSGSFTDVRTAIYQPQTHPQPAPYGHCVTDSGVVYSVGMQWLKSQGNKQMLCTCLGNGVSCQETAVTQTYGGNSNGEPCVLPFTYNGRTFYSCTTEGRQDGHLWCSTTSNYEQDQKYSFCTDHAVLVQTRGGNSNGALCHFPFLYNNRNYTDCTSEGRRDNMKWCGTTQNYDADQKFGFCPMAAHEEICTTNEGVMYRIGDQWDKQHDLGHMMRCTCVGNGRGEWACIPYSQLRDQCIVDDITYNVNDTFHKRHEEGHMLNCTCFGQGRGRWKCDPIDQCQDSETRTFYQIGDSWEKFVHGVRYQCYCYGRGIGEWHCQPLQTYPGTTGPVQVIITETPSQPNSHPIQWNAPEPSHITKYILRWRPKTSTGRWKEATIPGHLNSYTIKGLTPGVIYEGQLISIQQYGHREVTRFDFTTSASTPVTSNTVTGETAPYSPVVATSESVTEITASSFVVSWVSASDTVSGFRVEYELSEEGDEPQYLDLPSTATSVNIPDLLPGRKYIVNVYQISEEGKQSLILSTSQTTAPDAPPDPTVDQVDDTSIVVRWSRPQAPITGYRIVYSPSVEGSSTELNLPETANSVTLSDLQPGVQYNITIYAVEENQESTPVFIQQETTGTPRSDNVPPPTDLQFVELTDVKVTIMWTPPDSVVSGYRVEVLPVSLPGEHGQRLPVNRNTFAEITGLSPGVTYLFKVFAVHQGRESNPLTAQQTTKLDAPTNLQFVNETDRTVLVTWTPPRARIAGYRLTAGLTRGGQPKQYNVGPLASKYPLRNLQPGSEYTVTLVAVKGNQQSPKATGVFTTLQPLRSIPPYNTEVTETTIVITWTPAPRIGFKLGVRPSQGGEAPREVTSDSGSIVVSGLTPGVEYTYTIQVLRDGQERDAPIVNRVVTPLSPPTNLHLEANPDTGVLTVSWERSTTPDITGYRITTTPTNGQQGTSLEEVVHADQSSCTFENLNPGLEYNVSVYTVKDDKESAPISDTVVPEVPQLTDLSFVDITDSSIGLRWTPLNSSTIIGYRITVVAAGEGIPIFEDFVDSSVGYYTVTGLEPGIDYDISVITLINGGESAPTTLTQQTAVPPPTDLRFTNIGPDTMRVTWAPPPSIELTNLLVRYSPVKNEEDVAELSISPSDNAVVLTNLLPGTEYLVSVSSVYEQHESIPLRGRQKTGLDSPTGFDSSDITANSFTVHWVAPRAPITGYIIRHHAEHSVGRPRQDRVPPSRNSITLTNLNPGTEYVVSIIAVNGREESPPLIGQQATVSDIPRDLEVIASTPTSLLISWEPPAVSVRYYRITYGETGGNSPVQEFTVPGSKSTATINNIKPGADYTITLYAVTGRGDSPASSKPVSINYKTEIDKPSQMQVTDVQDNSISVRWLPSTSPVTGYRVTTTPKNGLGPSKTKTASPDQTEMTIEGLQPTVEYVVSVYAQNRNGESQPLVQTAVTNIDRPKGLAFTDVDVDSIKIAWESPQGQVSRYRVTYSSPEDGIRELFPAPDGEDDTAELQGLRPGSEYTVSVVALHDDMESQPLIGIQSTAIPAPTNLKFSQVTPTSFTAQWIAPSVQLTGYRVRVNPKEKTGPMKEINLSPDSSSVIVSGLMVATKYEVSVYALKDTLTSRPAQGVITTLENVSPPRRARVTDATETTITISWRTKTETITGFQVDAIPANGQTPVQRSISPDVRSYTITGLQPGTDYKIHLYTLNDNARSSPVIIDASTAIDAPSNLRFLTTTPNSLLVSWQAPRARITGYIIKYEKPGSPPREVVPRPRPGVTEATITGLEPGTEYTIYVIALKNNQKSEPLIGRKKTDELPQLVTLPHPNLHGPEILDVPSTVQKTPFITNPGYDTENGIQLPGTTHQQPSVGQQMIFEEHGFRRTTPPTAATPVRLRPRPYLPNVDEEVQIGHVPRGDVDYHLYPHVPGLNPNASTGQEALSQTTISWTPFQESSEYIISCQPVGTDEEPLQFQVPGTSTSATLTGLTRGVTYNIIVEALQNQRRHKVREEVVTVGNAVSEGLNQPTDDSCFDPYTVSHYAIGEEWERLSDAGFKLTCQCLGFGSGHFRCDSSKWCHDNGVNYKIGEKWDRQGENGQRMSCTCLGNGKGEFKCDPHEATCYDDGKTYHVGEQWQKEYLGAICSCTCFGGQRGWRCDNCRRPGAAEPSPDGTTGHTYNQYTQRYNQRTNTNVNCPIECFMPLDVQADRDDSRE

ED-B binding activity (ED-B)	koff [1] [s⁻¹]	staining of F9 tumor tissue sections [7]	Substance	apoptosis inducing TNF-alpha activity (L929 cells)	kon [1] [M⁻¹ s⁻¹]	relative tumor growth (F9 teratoma; in combination with Melphalan, 7 days, versus mTNFalpha with Melphalan or Melphalan alone)	effect on tumor growth (F9 teratoma; highest dose (6.75 μmol/g))	effect on tumor growth (F9 teratoma; lowest dose (0.25 pmol/g))	binding to negative control fragment 6789 [2]	binding to EDB expressing cells (EDB expressing cells; target(+))	cross reaction in serum without ED-B (EDB expressing cells; target(−))	binding on vital Wi38 cells ([3]; different concentrations)	binding on fixed Wi38 cells ([3]; 58.7 nM and 587 nM)	unspecific staining in 48 tissues [4]	binding on fixed murine Balb 3T3-cells (murine Balb 3T3-cells)	complex formation with 67B89 (ED-B) [5]	complex formation with 6789 (no ED-B) [6]	accumulation in F9 tumor tissue (F9 tumor tissues)	binding on fixed murine ST-2-cells (murine ST-2-cells)
–	–	–	1041-D11-TNFalpha: fusion protein of hetero-dimeric variant 1041-D11 and TNFα (mouse or human)	as active as free TNF-alpha	450000	reduces the relative tumor growth more efficiently	no suppressing effect on tumor growth	seems to retard tumor growth	not bound	specifically binds	no cross reaction	–	–	–	–	–	–	–	–
superior ED-B binding activity	0.00077	ED-B specific vascular staining	1041-D11: hetero-dimeric ubiquitin variant: K6W, L8W, K63R, E64K, S65F, T66P; second module K6T, L8Q, Q62W, K63S, E64N, S65W, T66E, Q2R	–	760000	–	–	–	no binding	–	–	binds to vital Wi38 cells with high specificity	binds to fixed Wi38 cells with high specificity	no unspecific staining	binds to murine Balb 3T3 cells with high specificity	formation of a complex; also recorded: builds a complex	no significant binding; also recorded: no complex	enriched	binds to murine Balb ST-2 cells with high specificity
